Measurements taken from PubChem BioAssay (NCI).
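All cell lines were grown in 96-well plates and treated with compound for 48 hours. GI50 is the concentration that inhibits growth by half. TGI marks complete inhibition of growth.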

Key:
Experiment in all cases: inhibition of tumour cell growth, NCI panel, 48 h
[1] = tested on: 786-0 renal
[2] = tested on: OVCAR-3 ovarian
[3] = tested on: COLO 205 colon
[4] = tested on: IGROV1 ovarian
[5] = tested on: NCI-H460 lung
[6] = tested on: SK-MEL-5 melanoma
[7] = tested on: NCI-H23 lung
[8] = tested on: UO-31 renal
[9] = tested on: HOP-92 NSCLC
[10] = tested on: RPMI-8226 leukemia
[11] = tested on: HOP-62 NSCLC
[12] = tested on: HCC-2998 colon
[13] = tested on: KM12 colon
[14] = tested on: HCT-15 colon
[15] = tested on: PC-3 prostate
[16] = tested on: EKVX NSCLC
[17] = tested on: SW-620 colon
[18] = tested on: MALME-3M melanoma
[19] = tested on: SF-268 CNS
[20] = tested on: SK-MEL-28 melanoma
[21] = tested on: HS 578T breast
[22] = tested on: NCI-H522 lung
[23] = tested on: A498 renal
[24] = tested on: SF-539 CNS
[25] = tested on: NCI/ADR-RES ovarian
[26] = tested on: DU-145 prostate
[27] = tested on: ACHN renal
[28] = tested on: MDA-MB-468 breast
[29] = tested on: K-562 leukemia
[30] = tested on: TK-10 renal
[31] = tested on: OVCAR-4 ovarian
[32] = tested on: NCI-H226 lung
[33] = tested on: UACC-62 melanoma
[34] = tested on: RXF 393 renal
[35] = tested on: SNB-75 CNS
[36] = tested on: U251 CNS
[37] = tested on: SK-MEL-2 melanoma
[38] = tested on: OVCAR-5 ovarian
[39] = tested on: LOX IMVI melanoma
[40] = tested on: SK-OV-3 ovarian
[41] = tested on: CAKI-1 renal
[42] = tested on: MCF7 breast
[43] = tested on: HL-60(TB) leukemia
[44] = tested on: CCRF-CEM leukemia
[45] = tested on: OVCAR-8 ovarian
[46] = tested on: MDA-MB-435
[47] = tested on: M14 melanoma
[48] = tested on: SN12C renal
[49] = tested on: HT29 colon
[50] = tested on: MOLT-4 leukemia
[51] = tested on: MDA-MB-231 breast
[52] = tested on: HCT-116 colon
[53] = tested on: UACC-257 melanoma
[54] = tested on: T-47D breast
[55] = tested on: SF-295 CNS
[56] = tested on: SNB-19 CNS
[57] = tested on: SR leukemia
[58] = tested on: A549 NSCLC
[59] = tested on: BT-549 breast

Clc1cccc(N/N=C/c2c[nH]c3ccccc23)n1
GI50 [1]: 11.1 µM
TGI [1]: 24.2 µM
GI50 [2]: 3.85 µM
TGI [2]: 19.3 µM
GI50 [3]: 13.8 µM
TGI [3]: 28.8 µM
GI50 [4]: 1.37 µM
TGI [4]: 6.92 µM
GI50 [5]: 11.5 µM
TGI [5]: 28.8 µM
GI50 [6]: 8.61 µM
TGI [6]: 21 µM
GI50 [7]: 12.5 µM
TGI [7]: 26.3 µM
GI50 [8]: 1.21 µM
TGI [8]: 14.1 µM
GI50 [9]: 5.32 µM
TGI [9]: 20.7 µM
GI50 [10]: 0.83 µM
TGI [10]: 14.5 µM
GI50 [11]: 10 µM
TGI [11]: 22.3 µM
GI50 [12]: 12 µM
TGI [12]: 24.6 µM
GI50 [13]: 9.78 µM
TGI [13]: 26.9 µM
GI50 [14]: 8.1 µM
TGI [14]: 21.5 µM
GI50 [15]: 2.98 µM
TGI [15]: 26.6 µM
GI50 [16]: 1.97 µM
TGI [16]: 16.8 µM
GI50 [17]: 13.3 µM
TGI [17]: 28 µM
GI50 [18]: 7.33 µM
TGI [18]: 20.8 µM
GI50 [19]: 2.99 µM
TGI [19]: 25.9 µM
GI50 [20]: 14.5 µM
TGI [20]: 27.6 µM
GI50 [21]: 4.17 µM
TGI [21]: 27.8 µM
GI50 [22]: 1.03 µM
TGI [22]: 12.4 µM
GI50 [23]: 18.7 µM
TGI [23]: 34 µM
GI50 [24]: 1.47 µM
TGI [24]: 11.9 µM
GI50 [25]: 2.98 µM
TGI [25]: 16.5 µM
GI50 [26]: 13 µM
TGI [26]: 26 µM
GI50 [27]: 10.5 µM
TGI [27]: 33.6 µM
GI50 [28]: 1.89 µM
TGI [28]: 5.01 µM
GI50 [29]: 1.94 µM
TGI [29]: 41 µM
GI50 [30]: 19.5 µM
TGI [30]: 42.3 µM
GI50 [31]: 10.5 µM
TGI [31]: 29 µM
GI50 [32]: 1.65 µM
TGI [32]: 17.2 µM
GI50 [33]: 10.3 µM
TGI [33]: 22 µM
GI50 [34]: 2.84 µM
TGI [34]: 18.1 µM
GI50 [35]: 0.141 µM
TGI [35]: 5 µM
GI50 [36]: 10.7 µM
TGI [36]: 25.8 µM
GI50 [37]: 12.9 µM
TGI [37]: 25.9 µM
GI50 [38]: 11 µM
TGI [38]: 23.7 µM
GI50 [39]: 3.32 µM
TGI [39]: 17 µM
GI50 [40]: 2.39 µM
TGI [40]: 16.8 µM
GI50 [41]: 2.23 µM
TGI [41]: 19.1 µM
GI50 [42]: 2.67 µM
TGI [42]: 16.4 µM
GI50 [43]: 1.28 µM
TGI [43]: 13.9 µM
GI50 [44]: 0.307 µM
TGI [44]: 19.4 µM
GI50 [45]: 8.12 µM
TGI [45]: 21 µM
GI50 [46]: 2.46 µM
TGI [46]: 12 µM
GI50 [47]: 11.9 µM
TGI [47]: 25.4 µM
GI50 [48]: 2.28 µM
TGI [48]: 11.7 µM
GI50 [49]: 15 µM
TGI [49]: 31.8 µM
GI50 [50]: 1.55 µM
TGI [50]: 21.9 µM
GI50 [51]: 1.37 µM
TGI [51]: 9.57 µM
GI50 [52]: 12.1 µM
TGI [52]: 25.2 µM
GI50 [53]: 11.6 µM
TGI [53]: 24 µM
GI50 [54]: 4.04 µM
TGI [54]: 19 µM
GI50 [55]: 11.4 µM
TGI [55]: 23.5 µM
GI50 [56]: 12.7 µM
TGI [56]: 30.8 µM
GI50 [57]: 2.93 µM
TGI [57]: 19.3 µM
GI50 [58]: 13.2 µM
TGI [58]: 38.2 µM
GI50 [59]: 0.245 µM
TGI [59]: 11 µM
